Data reported in patent US20260091082A1, “CYCLIC PEPTIDE DERIVATIVE COMPOSITION FOR TREATING OR PREVENTING EYE DISEASE” (DKS Co. Ltd., priority 2022, published 2026).
Where “and” joins values, the source holds several entries; their conditions need not be identical. Equal entries are not always repeated.

System: anterior chamber aqueous humor pressure load rat model
Experiment: Retinal thickness (IPL, INL, ONL) in retinal damage model induced by anterior chamber aqueous humor pressure load
Type: in vivo, Rat; Slc: SD
Method: • Name: Compound 9 • Source: Synthesized in the above Examples • Used amount: 0.4 mL (50 mg/mL solution) • Storage conditions: Freezing, light shielding
Method for preparing test substance (1 mg/mL): A high concentration solution prepared at 50 mg/mL was diluted 50 times with a medium to prepare a 1 mg/mL administration solution.
• Name: MK-801 • Distributor: SIGMA-ALDRICH • Use amount: 0.0501 g • Storage condition: refrigerated (2° C. to 8° C.)
Method for preparing positive control substance (10 mg/mL): 0.0501 g was weighed out and made up to a total volume of 5 mL with a control substance (physiological saline).
• Species and strains: Rat; Slc: SD • Number of animals on arrival and sex: 50 males • Age in weeks at arrival: 6 weeks old • Body weight range at arrival: 147.2 to 170.0 g • Source: Japan SLC, Inc.
Grouping was performed two days before the first creation of the retinal damage model induced by an anterior chamber aqueous humor pressure load. Using the daily body weight as an index, stratified random allocation was performed using SAS (Ver. 9.3, SAS Institute Japan Ltd.) and EXSUS (Ver. 8.0, CAC Croit Corporation) so that an average value of the body weights of each group was approximately uniform.
• Administration route: Eyedrop administration, intravenous administration • Administration method (eyedrop): Eyedrop administration was performed on a treated eye (right eye) of a rat using a micropipette 4 times a day (at intervals of 1.5 hours or more). • Administration method (intravenous): The amount of administration solution, calculated from the body weight on the day of administration, was administered from the tail vein using a syringe and an injection needle about 30 minutes before ischemic load. • Time of administration: Administration was performed according to the following schedule.
1. 10 mg/kg xylazine hydrochloride was intramuscularly administered on the model creation day (day 0). A rat was placed in an anesthesia box and subjected to general anesthesia with isoflurane (5%, oxygen:nitrous oxide=1:3). When anesthesia was effective, the rat was taken out of the anesthesia box, an inhalation anesthetic mask was worn, and anesthesia was maintained with isoflurane (1% to 5%, oxygen nitrous oxide=1:3).
2. The body temperature was maintained at 37° C. with a warming mat, and a mydrin P ophthalmic solution was instilled in the right eye (treated eye) of the rat to dilate the pupil, then the cravit ophthalmic solution 1.5% (Santen Pharmaceutical Co., Ltd.) was instilled.
3. A bottle of an IV bag containing physiological saline was previously suspended so that a water surface was 155 cm (100 mmHg or more) higher than the eye of the rat. The IV bag was connected to a pediatric infusion set (Terumo Corporation), a 27 G injection needle thereof was inserted into and fixed to the anterior chamber while slightly dripping the liquid from a needle tip. The model was created in the light phase (6:00 to 18:00) in consideration of the diurnal variation of the intraocular pressure.
4. After the needle was inserted into the anterior chamber, pressure (100 mmHg or more) was loaded and maintained in the anterior chamber by associating the reflux system.
5. After an ischemic load for 45 minutes, the injection needle and the like were removed, the inhalation anesthetic mask was removed, and the rat was sufficiently woken up under a warming mat, and then returned to the cage.
6. For 2 days after surgery, 10 mg/kg xylazine hydrochloride was intramuscularly administered as an analgesic for the purpose of alleviating the pain after the treatment.
1. Fourteen days after model creation, general anesthesia was performed with isoflurane (5%, oxygen:nitrous oxide=1:3), euthanasia was then performed by exsanguination, a suture was placed as a marker at the 12 o'clock position of the ocular conjunctiva, and eyeball enucleation was performed.
2. […]

[1] = 900 μm from optic disk, (pre) 1 mg/mL eye drop 4 times/day on the 2 days before model creation (test group 2), 14 days after model creation, mean ± S.E., 10 animals, listed as compound 9
[2] = compound 9 (pre), 1 mg/mL eye drop, right eye, individual animals 201-210

CC[C@@]1(C)Oc2cc(ccc2O)C[C@H](NC)C(=O)N[C@@H](C(C)C)C(=O)N[C@@H]1C(=O)N[C@@H](CC(=O)O)C(=O)O [Compound 9]
Thickness of ONL (μm) (900 μm from optic disk, (pre) 1 mg/mL eye drop 4 times/day on the 2 days before model creation (test group 2), 14 days after model creation, mean ± S.E., 10 animals): 42.55±1.13 μm | Thickness of INL (μm) [1]: 30.39 ± 1.24 μm | Thickness of ONL (μm) [1]: 42.55 ± 1.13 μm | Inhibitory effect on retinal damage induced by ischemia of aqueous humor pressure load (anterior chamber aqueous humor pressure load rat model, overall conclusion): inhibitory effect on retinal damage induced by ischemia of aqueous humor pressure load was observed | Thickness of ONL, distance from optic disk 600 μm (single measurement) [2]: 41.121 μm and 44.598 μm and 41.326 μm (2×) and 41.066 μm and 41.161 μm and 38.743 μm and 41.131 μm and 38.275 μm and 37.963 μm and 43.645 μm and 43.106 μm and 45.168 μm and 47.317 μm and 40.325 μm and 41.137 μm and 43.653 μm and 45.150 μm and 48.296 μm and 46.805 μm and 44.685 μm and 46.160 μm and 42.772 μm and 45.479 μm and 40.612 μm and 40.588 μm and 46.031 μm and 41.299 μm and 42.932 μm and 48.910 μm | Thickness of ONL, distance from optic disk 900 μm (single measurement) [2]: 39.011 μm and 42.742 μm and 45.091 μm and 47.744 μm and 45.684 μm and 43.996 μm and 37.237 μm and 36.389 μm and 38.143 μm and 43.578 μm and 39.518 μm and 41.375 μm and 35.794 μm and 34.452 μm and 41.663 μm and 42.383 μm and 44.814 μm and 41.883 μm and 43.824 μm and 46.139 μm and 43.354 μm and 38.661 μm and 41.202 μm and 40.552 μm and 46.165 μm and 45.398 μm and 48.471 μm and 47.795 μm and 47.248 μm and 46.278 μm | Thickness of ONL, distance from optic disk 300 μm (single measurement) (compound 9 (pre), 1 mg/mL eye drop, right eye, individual animals 201-210, aqueous humor pressure load rat model): 50.813 μm and 51.311 μm and 53.250 μm and 34.452 μm and 30.709 μm and 34.312 μm and 40.039 μm and 41.413 μm and 11.468 μm and 39.811 μm and 37.328 μm and 39.938 μm and 33.741 μm and 35.794 μm and 35.603 μm and 42.742 μm and 44.362 μm and 44.355 μm and 36.433 μm and 40.355 μm and 37.980 μm and 39.617 μm and 40.341 μm and 39.065 μm and 40.883 μm and 41.062 μm and 40.112 μm and 37.690 μm and 36.851 μm and 39.911 μm | Thickness of INL (μm), Distance from Optic Disk 300 μm (compound 9 (pre), 1 mg/mL eye drop, right eye, 300 μm from optic disk, individual measurements per animal): 33.065 μm (2×) and 33.507 μm and 34.677 μm and 27.561 μm and 24.567 μm and 22.703 μm and 32.389 μm and 34.110 μm and 29.740 μm and 25.207 μm and 23.667 μm and 23.845 μm and 26.312 μm and 23.484 μm and 24.843 μm and 33.881 μm and 35.521 μm and 29.211 μm and 29.882 μm and 27.608 μm and 23.876 μm and 25.810 μm and 24.277 μm and 32.198 μm and 33.996 μm and 30.756 μm and 28.424 μm and 29.579 μm and 30.220 μm | Thickness of IPL (μm), Distance from Optic Disk 300 μm (compound 9 (pre), 1 mg/mL eye drop, right eye, 300 μm from optic disk, individual measurements per animal, listed as compond 9): 30.656 μm and 25.003 μm and 29.032 μm and 29.077 μm and 33.909 μm (2×) and 31.903 μm and 34.939 μm and 37.800 μm and 36.389 μm and 29.133 μm and 28.638 μm and 29.937 μm and 29.144 μm (2×) and 35.013 μm and 33.871 μm and 31.072 μm and 34.110 μm and 29.907 μm and 35.630 μm and 33.931 μm and 27.028 μm and 28.472 μm and 34.310 μm and 34.680 μm and 32.998 μm and 28.183 μm and 25.310 μm and 26.057 μm | Thickness of INL (μm), Distance from Optic Disk 300 μm, Mean (compound 9 (pre), 1 mg/mL eye drop, right eye, 300 μm from optic disk, mean per animal): 33.750 μm and 24.944 μm and 32.080 μm and 24.240 μm and 24.880 μm and 34.156 μm and 28.900 μm and 24.654 μm and 32.317 μm and 29.408 μm | Thickness of IPL (μm), Distance from Optic Disk 300 μm, Mean (compound 9 (pre), 1 mg/mL eye drop, right eye, 300 μm from optic disk, mean per animal, listed as compond 9): 28.230 μm and 31.630 μm and 36.376 μm and 29.236 μm and 31.100 μm and 32.951 μm and 33.216 μm and 29.810 μm and 33.996 μm and 26.517 μm | Thickness of INL (μm), Distance from Optic Disk 600 μm (compound 9 (pre), 1 mg/mL eye drop, right eye, 600 μm from optic disk, individual measurements per animal): 33.065 μm and 33.351 μm and 31.150 μm and 27.855 μm and 34.827 μm and 31.493 μm and 24.207 μm and 30.656 μm and 26.506 μm and 25.323 μm and 34.640 μm and 33.153 μm and 30.688 μm and 31.462 μm and 25.000 μm and 25.819 μm and 36.789 μm and 36.469 μm and 35.907 μm and 35.051 μm and 38.781 μm and 30.223 μm and 27.431 μm and 28.512 μm and 22.710 μm and 34.691 μm and 32.298 μm and 28.240 μm and 38.410 μm and 32.790 μm | Thickness of IPL (μm), Distance from Optic Disk 600 μm (compound 9 (pre), 1 mg/mL eye drop, right eye, 600 μm from optic disk, individual measurements per animal, listed as compond 9): 35.272 μm and 36.967 μm and 39.787 μm and 38.516 μm and 42.129 μm and 44.421 μm and 35.566 μm and 35.907 μm and 34.333 μm and 35.134 μm and 37.963 μm and 38.006 μm and 42.772 μm and 42.744 μm and 37.116 μm and 32.671 μm and 45.118 μm and 45.778 μm and 34.473 μm and 36.322 μm and 37.125 μm and 37.847 μm and 44.472 μm and 36.393 μm and 35.013 μm and 40.678 μm and 44.362 μm and 37.009 μm and 45.280 μm and 36.469 μm | Thickness of INL (μm), Distance from Optic Disk 600 μm, Mean (compound 9 (pre), 1 mg/mL eye drop, right eye, 600 μm from optic disk, mean per animal): 35.066 μm and 29.743 μm and 31.250 μm and 27.792 μm and 24.846 μm and 34.161 μm and 31.483 μm and 26.353 μm and 37.223 μm and 34.583 μm | Thickness of IPL (μm), Distance from Optic Disk 600 μm, Mean (compound 9 (pre), 1 mg/mL eye drop, right eye, 600 μm from optic disk, mean per animal, listed as compond 9): 36.455 μm and 38.717 μm and 43.674 μm and 35.955 μm and 34.827 μm and 38.882 μm and 43.293 μm and 35.599 μm and 45.392 μm and 35.755 μm | Thickness of INL (μm), Distance from Optic Disk 900 μm (compound 9 (pre), 1 mg/mL eye drop, right eye, 900 μm from optic disk, individual measurements per animal): 34.804 μm and 34.579 μm and 36.245 μm and 30.909 μm and 31.452 μm and 30.862 μm and 27.037 μm and 29.926 μm (2×) and 22.638 μm and 25.416 μm and 27.482 μm and 24.116 μm and 23.512 μm and 24.261 μm and 34.939 μm and 35.346 μm and 31.197 μm and 28.785 μm and 32.162 μm and 30.368 μm and 28.858 μm and 27.378 μm and 29.877 μm and 36.469 μm and 34.623 μm and 36.346 μm and 31.402 μm and 31.035 μm and 29.653 μm | Thickness of IPL (μm), Distance from Optic Disk 900 μm (compound 9 (pre), 1 mg/mL eye drop, right eye, 900 μm from optic disk, individual measurements per animal, listed as compond 9): 36.789 μm and 36.607 μm and 39.836 μm and 44.120 μm and 43.136 μm and 43.354 μm and 44.421 μm and 42.075 μm and 41.663 μm and 37.132 μm and 35.896 μm and 35.907 μm and 36.540 μm and 39.019 μm and 40.323 μm and 10.804 μm and 39.318 μm and 42.252 μm and 44.289 μm and 46.476 μm and 47.334 μm and 41.468 μm and 39.312 μm and 40.445 μm and 49.477 μm and 48.242 μm and 50.923 μm and 38.230 μm and 37.912 μm and 42.098 μm | Thickness of INL (μm), Distance from Optic Disk 900 μm, Mean (compound 9 (pre), 1 mg/mL eye drop, right eye, 900 μm from optic disk, mean per animal): 35.209 μm and 31.074 μm and 28.963 μm and 25.179 μm and 23.963 μm and 33.827 μm and 30.438 μm and 28.704 μm and 35.813 μm and 30.697 μm | Thickness of IPL (μm), Distance from Optic Disk 900 μm, Mean (compound 9 (pre), 1 mg/mL eye drop, right eye, 900 μm from optic disk, mean per animal, listed as compond 9): 37.744 μm and 43.537 μm and 42.720 μm and 36.312 μm and 38.627 μm and 40.791 μm and 46.033 μm and 40.408 μm and 49.547 μm and 39.413 μm
